Where two headings read alike, the source gives them in different places.
What was measured:
Type in all cases: in vivo
[1] = test system: Cyperus serotinus; test: Greenhouse transplant rice test, CS; conditions: about 3 WAT, read-out: Percent Inhibition, CS; for inhibition at 280 g/ha: 0.28 Kg/Ha; for inhibition at 560 g/ha: 0.56 Kg/Ha; for inhibition at 1120 g/ha: 1.12 Kg/Ha; for inhibition at 2240 g/ha: 2.24 Kg/Ha
Text: The test procedure used in this greenhouse test is as follows: Ray silt loam top soil containing about 0.05% by weight of krillium and sifted through a […] screen is fumigated about 5-10 days prior to use. Pots are then filled with said Ray silt loam soil to a level to allow for a 1 in. (2.54 cm) flooding depth. Rice plants (Bluebelle) of 2 to 3 weeks age are transplanted to the pots and bulbs or seeds of the test weeds also planted in the pots. The pots are then flooded and the test chemical applied to the surface of the flood water. The flood water is reduced to allow for germination of the Echinochloa crus-galli (barnyardgrass) seed and subsequently reflooded and maintained in that condition. Observations of percent inhibition using a scale of 0-100% are made about 3 weeks after transplant (WAT).
(§1) The test data in Table III for all compounds was obtained under identical test conditions. The weeds used in the tests herein have the following abbreviations in the tables: Echinochloa crus-galli (EC), Monochloria vaginalis (MV), Cyperus Serotinus (CS), Eleocharis Kuroguwai (EK) and Sagittaria trifolia (ST).

[2] = test system: Smartweed; test: Pre-emergent herbicidal test, Smartweed; note: ranges in brackets are in %
Text: (§2) A good grade of top soil is placed in aluminum pans and compacted to a depth of three-eights to one-half inch from the top of the pan. On the top of the soil is placed a number of seeds or vegetative propagules of various plant species. The soil required to level fill the pans after seeding or adding vegetative propagules is weighted into a pan. The soil and a known amount of the active ingredient applied in a solvent or as a wettable powder suspension are thoroughly mixed, and used to cover the prepared pans. After treatment, the pans are moved into a greenhouse bench where they are watered by subirrigation as needed to give adequate moisture for germination and growth.
(§3) Approximately 2 weeks after seeding and treating, the plants were observed and the results recorded. The herbicidal rating was obtained by means of a fixed scale based on the percent injury of each plant species. The ratings are defined as follows: […]

[3] = test system: Quackgrass; test: Pre-emergent herbicidal test, Quackgrass; conditions: Table I; note: ranges in brackets are in %
Text: as §2, §3

[4] = test system: Sugarbeet; test: Pre-emergent herbicidal test, Sugarbeet; conditions: Table II; note: ranges in brackets are in %
Text: as §2, §3
The compounds were further tested by utilizing the above procedure on the following plant species: […]

[5] = test system: Velvetleaf; test: Pre-emergent herbicidal test, Velvetleaf; note: ranges in brackets are in %
Text: as §2, §3

[6] = test system: Morningglory; test: Pre-emergent herbicidal test, Morningglory; note: ranges in brackets are in %
Text: as §2, §3

[7] = test system: Rice; test: Field transplant rice test, applied 9 DAT, rice injury; conditions: for inhibition at 375 g/ha / inhibition at 750 g/ha / inhibition at 1500 g/ha / inhibition at 3000 g/ha: Oryza sativa, 216 h, read-out: Percent Inhibition, Rice; for inhibition at 375 g/ha: 0.375 Kg/Ha; for inhibition at 750 g/ha: 0.75 Kg/Ha; for inhibition at 1500 g/ha: 1.5 Kg/Ha; for inhibition at 3000 g/ha: 3.0 Kg/Ha
Protocol: (§4) In further comparative tests, a preferred compound of this invention (Example 1) was tested in the field with prior art Compounds A-D. These tests were conducted under conditions reflecting herbicide application times generally favorable to all herbicides in the test. The timing of application of herbicides to transplant rice is very important, whether, as in some instances, prior to transplanting the rice; in other instances, at the time of transplanting or else after transplanting. Application times are conventionally referred to as "days before transplant" (DBT) or "days after transplant" ("DAT"). The field test data in Table IV was obtained from a test in which the herbicides were applied at the time of transplant, i.e., "0 DAT", with observations being made weekly up to six weeks after transplant ("WAT") beginning at two weeks after transplant; for illustrative and representative purposes, only the early, middle and late period observations, i.e., 2 WAT, 4 WAT and 6 WAT, are shown in Table IV. The data in Table IV is for rates of application common to all herbicides in the test, i.e., from 3.0 kg/ha (2.67 lb/A) down to 0.375 kg/ha (0.34 lb/A). All herbicides were applied at their actual or expected use rates, i.e., as granules containing 2.5% by weight herbicide for the compound of Example 1, Compounds B, C and D and 5.0% by weight for Compound A.
(§5) In Table V are presented field data showing the relative performance of the compound of Example 1 and Compounds A-D applied 9 DAT, with observations being made weekly from 3 WAT to 7 WAT; again, for illustrative and representative purposes, only the early, middle and late period observations are reported in Table V, the herbicide rates and concentrations of active ingredients the same as is shown in Table IV.

[8] = test system: Sagittaria trifolia; test: Field transplant rice test, applied 0 DAT, ST; conditions: 0 h, read-out: Percent Inhibition, ST; for inhibition at 375 g/ha: 0.375 Kg/Ha; for inhibition at 750 g/ha: 0.75 Kg/Ha; for inhibition at 1500 g/ha: 1.5 Kg/Ha; for inhibition at 3000 g/ha: 3.0 Kg/Ha
Protocol: as §1, §4

[9] = test system: Sagittaria trifolia; test: Field transplant rice test, applied 9 DAT, ST; conditions: 216 h, read-out: Percent Inhibition, ST; for inhibition at 375 g/ha: 0.375 Kg/Ha; for inhibition at 750 g/ha: 0.75 Kg/Ha; for inhibition at 1500 g/ha: 1.5 Kg/Ha; for inhibition at 3000 g/ha: 3.0 Kg/Ha
Protocol: as §1, §4, §5

SMILES: CCCCOc1cccc(CC)c1N(CC)C(=O)CCl [Example 2, N-ethyl-2'-n-butoxy-6'-ethyl-2-chloroacetanilide]
- inhibition at 280 g/ha [1]: 100%
- inhibition at 560 g/ha [1]: 100%
- inhibition at 1120 g/ha [1]: 100%
- inhibition at 2240 g/ha [1]: 100%
- Rating, Smartweed ([2]; Table I, 5.6 kg/h): 3 (75-100)
- Rating, Smartweed ([2]; Table I, 11.2 kg/h): 3 (75-100)
- Rating, Smartweed ([2]; Table II, 0.01 kg/h): 0 (0-24)
- Rating, Smartweed ([2]; Table II, 0.06 kg/h): 0 (0-24)
- Rating, Smartweed ([2]; Table II, 0.28 kg/h): 0 (0-24)
- Rating, Smartweed ([2]; Table II, 1.12 kg/h): 2 (50-74)
- Rating, Smartweed ([2]; Table II, 5.6 kg/h): 3 (75-100)
- Rating, Quackgrass ([3]; 5.6 kg/h): 3 (75-100)
- Rating, Quackgrass ([3]; 11.2 kg/h): 3 (75-100)
- Rating, Sugarbeet ([4]; 0.01 kg/h): 0 (0-24)
- Rating, Sugarbeet ([4]; 0.06 kg/h): 0 (0-24)
- Rating, Sugarbeet ([4]; 0.28 kg/h): 1 (25-49)
- Rating, Sugarbeet ([4]; 1.12 kg/h): 2 (50-74)
- Rating, Sugarbeet ([4]; 5.6 kg/h): 2 (50-74)
- Rating, Velvetleaf ([5]; Table I, 5.6 kg/h): 0 (0-24)
- Rating, Velvetleaf ([5]; Table I, 11.2 kg/h): 1 (25-49)
- Rating, Velvetleaf ([5]; Table II, 0.01 kg/h): 0 (0-24)
- Rating, Velvetleaf ([5]; Table II, 0.06 kg/h): 0 (0-24)
- Rating, Velvetleaf ([5]; Table II, 0.28 kg/h): 0 (0-24)
- Rating, Velvetleaf ([5]; Table II, 1.12 kg/h): 0 (0-24)
- Rating, Velvetleaf ([5]; Table II, 5.6 kg/h): 1 (25-49)
- Rating, Morningglory ([6]; Table I, 5.6 kg/h): 0 (0-24)
- Rating, Morningglory ([6]; Table I, 11.2 kg/h): 2 (50-74)
- Rating, Morningglory ([6]; Table II, 0.01 kg/h): 0 (0-24)
- Rating, Morningglory ([6]; Table II, 0.06 kg/h): 0 (0-24)
- Rating, Morningglory ([6]; Table II, 0.28 kg/h): 0 (0-24)
- Rating, Morningglory ([6]; Table II, 1.12 kg/h): 0 (0-24)
- Rating, Morningglory ([6]; Table II, 5.6 kg/h): 1 (25-49)

SMILES: CCCCOc1cccc(CC)c1N(C)C(=O)CCl [Example 1, N-methyl-2'-n-butoxy-6'-ethyl-2-chloroacetanilide]
- inhibition at 280 g/ha [1]: 85%
- inhibition at 560 g/ha [1]: 100%
- inhibition at 1120 g/ha [1]: 100%
- inhibition at 2240 g/ha [1]: 100%
- Rating, Smartweed ([2]; Table I, 5.6 kg/h): 2 (50-74)
- Rating, Smartweed ([2]; Table I, 11.2 kg/h): 3 (75-100)
- Rating, Smartweed ([2]; Table II, 0.006 kg/h): 0 (0-24)
- Rating, Smartweed ([2]; Table II, 0.01 kg/h): 0 (0-24)
- Rating, Smartweed ([2]; Table II, 0.06 kg/h): 0 (0-24)
- Rating, Smartweed ([2]; Table II, 0.28 kg/h): 2 (50-74)
- Rating, Smartweed ([2]; Table II, 1.12 kg/h): 3 (75-100)
- Rating, Smartweed ([2]; Table II, 5.6 kg/h): 3 (75-100)
- inhibition at 375 g/ha ([7]; 3 WAT): 13%
- inhibition at 375 g/ha ([7]; 5 WAT): 7%
- inhibition at 375 g/ha ([7]; 7 WAT): 7%
- inhibition at 750 g/ha ([7]; 3 WAT): 7%
- inhibition at 750 g/ha ([7]; 5 WAT): 2%
- inhibition at 750 g/ha ([7]; 7 WAT): 0%
- inhibition at 1500 g/ha ([7]; 3 WAT): 10%
- inhibition at 1500 g/ha ([7]; 5 WAT): 7%
- inhibition at 1500 g/ha ([7]; 7 WAT): 5%
- inhibition at 3000 g/ha ([7]; 3 WAT): 15%
- inhibition at 3000 g/ha ([7]; 5 WAT): 15%
- inhibition at 3000 g/ha ([7]; 7 WAT): 10%
- rate at which safety in rice is maintained ([7]; maximum test rate): ≥ 3.0 kg/ha
- Rating, Quackgrass ([3]; 5.6 kg/h): 3 (75-100)
- Rating, Quackgrass ([3]; 11.2 kg/h): 3 (75-100)
- inhibition at 375 g/ha ([8]; 2 WAT): 42%
- inhibition at 375 g/ha ([8]; 4 WAT): 8%
- inhibition at 375 g/ha ([8]; 6 WAT): 5%
- inhibition at 750 g/ha ([8]; 2 WAT): 43%
- inhibition at 750 g/ha ([8]; 4 WAT): 12%
- inhibition at 750 g/ha ([8]; 6 WAT): 8%
- inhibition at 1500 g/ha ([8]; 2 WAT): 30%
- inhibition at 1500 g/ha ([8]; 4 WAT): 8%
- inhibition at 1500 g/ha ([8]; 6 WAT): 5%
- inhibition at 3000 g/ha ([8]; 2 WAT): 47%
- inhibition at 3000 g/ha ([8]; 4 WAT): 22%
- inhibition at 3000 g/ha ([8]; 6 WAT): 18%
- Rating, Sugarbeet ([4]; 0.006 kg/h): 0 (0-24)
- Rating, Sugarbeet ([4]; 0.01 kg/h): 0 (0-24)
- Rating, Sugarbeet ([4]; 0.06 kg/h): 0 (0-24)
- Rating, Sugarbeet ([4]; 0.28 kg/h): 1 (25-49)
- Rating, Sugarbeet ([4]; 1.12 kg/h): 2 (50-74)
- Rating, Sugarbeet ([4]; 5.6 kg/h): 3 (75-100)
- Rating, Velvetleaf ([5]; Table I, 5.6 kg/h): 2 (50-74)
- Rating, Velvetleaf ([5]; Table I, 11.2 kg/h): 2 (50-74)
- Rating, Velvetleaf ([5]; Table II, 0.006 kg/h): 0 (0-24)
- Rating, Velvetleaf ([5]; Table II, 0.01 kg/h): 0 (0-24)
- Rating, Velvetleaf ([5]; Table II, 0.06 kg/h): 0 (0-24)
- Rating, Velvetleaf ([5]; Table II, 0.28 kg/h): 0 (0-24)
- Rating, Velvetleaf ([5]; Table II, 1.12 kg/h): 1 (25-49)
- Rating, Velvetleaf ([5]; Table II, 5.6 kg/h): 1 (25-49)
- inhibition at 375 g/ha ([9]; 3 WAT): 50%
- inhibition at 375 g/ha ([9]; 5 WAT): 23%
- inhibition at 375 g/ha ([9]; 7 WAT): 18%
- inhibition at 750 g/ha ([9]; 3 WAT): 43%
- inhibition at 750 g/ha ([9]; 5 WAT): 33%
- inhibition at 750 g/ha ([9]; 7 WAT): 13%
- inhibition at 1500 g/ha ([9]; 3 WAT): 40%
- inhibition at 1500 g/ha ([9]; 5 WAT): 13%
- inhibition at 1500 g/ha ([9]; 7 WAT): 7%
- inhibition at 3000 g/ha ([9]; 3 WAT): 72%
- inhibition at 3000 g/ha ([9]; 5 WAT): 43%
- inhibition at 3000 g/ha ([9]; 7 WAT): 38%
- Rating, Morningglory ([6]; Table I, 5.6 kg/h): 2 (50-74)
- Rating, Morningglory ([6]; Table I, 11.2 kg/h): 1 (25-49)
- Rating, Morningglory ([6]; Table II, 0.006 kg/h): 0 (0-24)
- Rating, Morningglory ([6]; Table II, 0.06 kg/h): 0 (0-24)
- Rating, Morningglory ([6]; Table II, 0.28 kg/h): 0 (0-24)
- Rating, Morningglory ([6]; Table II, 1.12 kg/h): 2 (50-74)
- Rating, Morningglory ([6]; Table II, 5.6 kg/h): 3 (75-100)

Reference: patent US4345938A, “Herbicidal 2-haloacetanilides” (Monsanto Company, priority 1980, dated 1982)
